We go through four compounds from patent publication EP0477700A1, “6'-C-alkyl- or alkynyl-neplanocin A, and its preparation process and use” (priority 1990, dated 1992).

For data set [1], the target named is T1, adenosine deaminase (Bos taurus, UniProt P56658).
T1 sequence (P56658 1-363): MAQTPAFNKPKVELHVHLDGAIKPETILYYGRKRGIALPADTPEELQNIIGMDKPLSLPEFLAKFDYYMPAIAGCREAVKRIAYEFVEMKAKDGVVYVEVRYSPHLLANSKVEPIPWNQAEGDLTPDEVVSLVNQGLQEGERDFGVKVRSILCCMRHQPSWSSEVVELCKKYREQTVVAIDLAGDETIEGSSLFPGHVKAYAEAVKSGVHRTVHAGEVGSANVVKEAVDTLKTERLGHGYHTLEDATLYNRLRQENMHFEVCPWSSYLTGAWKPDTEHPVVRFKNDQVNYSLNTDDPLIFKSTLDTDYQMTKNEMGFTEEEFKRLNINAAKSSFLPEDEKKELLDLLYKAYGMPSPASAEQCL
The experiment in a line: Adenosine deaminase resistance (remaining compound measured by HPLC). Particulars: for Percent remainder 0 minute / Percent remainder 30 minutes: 5 mM compound in 0.05 M Tris-HCl buffer (pH 7.2), adenosine deaminase (calf intestine), 25°C.

In data set [2] the test system is parainfulenza virus. Description: Antiviral activity against parainfluenza virus in Vero cells (minimum virus growth inhibitory concentration). It counts as cell-based.
The subject of data set [3] is Vero cells. Description: Cytotoxicity in Vero cells (minimum cytotoxicity concentration).
Data set [4] relates to Vesicular Stomatitis Virus (VSV). Description: microbe, parasite or virus in culture. It counts as cell-based. The note with it: 36 h.

The structures appear in SMILES notation. Values after ≈ are worked out from the molar mass of the structure shown. Read-outs that look alike come from different tables or passages of the source.

`CCC(O)C1=C[C@@H](n2cnc3c(N)ncnc32)[C@H](O)[C@@H]1O` (stereo partly shown) [6'-C-Ethylneplanocin A, 6'-C-ethylneplanocin A]: in data set [1], the “Percent remainder 0 minute” value came to 100% and the “Percent remainder 30 minutes” value was 94%.
`Nc1ncnc2c1ncn2[C@@H]1C=C(CO)[C@@H](O)[C@H]1O` [Neplanocin A]: the MIC was 0.1 µg/mL (≈ 0.38 µM) in data set [2] and 3.9 µg/mL (≈ 14.8 µM) in data set [4]. The MCC result in data set [3] is “≧40 µg/mℓ”. Moreover, the “Percent remainder 0 minute” value in data set [1] is 100%. The “Percent remainder 30 minutes” value in data set [1] is on record as 0%. This compound showed an inactivated in data set [1] (summary of the adenosine deaminase resistance test (conditions of Table 3)) of 100%.
On to `CC(O)C1=C[C@@H](n2cnc3c(N)ncnc32)[C@H](O)[C@@H]1O` (stereo partly shown) [6'-C-Methylneplanocin A, 6'-C-methylneplanocin A], for which the MIC in data set [2] (minimum virus growth inhibitory concentration, parainfulenza virus, Vero cells, read-out: MIC) stood at 0.1 µg/mL (≈ 0.361 µM). The MCC result in data set [3] was “≧400 µg/mℓ”. Moreover, in data set [1], the “Percent remainder 0 minute” value amounted to 100% and the “Percent remainder 30 minutes” value turned out to be 92%. In data set [4], this compound showed an MIC of 0.1 µg/mL (≈ 0.361 µM).
In the case of `C#CC(O)C1=C[C@@H](n2cnc3c(N)ncnc32)[C@H](O)[C@@H]1O` (stereo partly shown) [6'-C-Ethynylneplanocin A, 6'-C-ethynylneplanocin A], in data set [1], the “Percent remainder 0 minute” value came out at 100% and the “Percent remainder 30 minutes” value is given as 96%. In data set [4], this compound returned an MIC of 0.1 µg/mL (≈ 0.348 µM).
